This is an account of results in patent US10584115B2, “Substituted pyridine and pyrazine BMI-1 inhibitors” (PTC Therapeutics, Inc., priority 2013, dated 2020).

In one test the test system is Bmi-1 protein. Put plainly: Sandwich ELISA Assay (Bmi-1 protein level in HT-1080 cells after compound treatment). The settings on record: Table 1, Bmi-1 sandwich ELISA, read-out: ELISA EC50 value for Bmi-1 protein. Format: cell-based. How it is done:
Cell Seeding and Compound Treatment (Day 1):
HT-1080 cells were seeded at 8000 cells/well (50 μL) in 96-well tissue culture plates. After the cells became adherent (3-4 hours), 2× diluted stocks of test compounds in 50 μL DMEM containing 1% DMSO (final DMSO concentration was 0.5%) were added and the plates were incubated at 37° C. under 5% CO2 for 40-48 hours.
ELISA Plate First Antibody Preparation (Day 2):
The First Antibody (Millipore Mouse, monoclonal to mouse Bmi-1, clone F6, catalog #05-637) diluted to […] in PBS was added (100 μL) to each well of a Nunc MaxiSorp 96-well ELISA plate. The plate was covered with a plate seal and allowed to stand overnight.
Cell Lysate Preparation (Day 3):
Fresh Lysis buffer (1×) was prepared on the day of the assay as follows: 1 mM EDTA, 150 mM NaCl, 0.5% Triton-X 100, 10 mM NaF, 20 mM B-Glycerophosphate, 1 mM DTT (in PBS, pH 7.2-7.4) and HALT protease inhibitor cocktail (lx) (Pierce #78410).
A standard curve was prepared at the following Bmi-1 concentrations: 8000, 4000, 2000, 1000, 500, 250, 125 and 0 pg/mL. The Bmi-1 Recombinant Protein Standard (Novus Biologicals PCGF4 Recombinant Protein (P01), catalog # H00000648-P01) used to prepare the standard curve was stored at −80° C. On first thaw, the Recombinant Protein Standard was diluted to 10 μg/L in Blocking Buffer (1% BSA in PBS; BSA: Fisher Scientific Catalog #1600-100). Aliquots were taken and refrozen at −80° C. The aliquots may be kept at 4° C. and reused after first thaw, but only within 1-2 weeks. The Recombinant Protein Standard contains a GST-fusion tag that appears at approximately 70 Kda on Western Blot.
The prepared ELISA plate was washed 3× with Wash Buffer (0.05% Tween-20 in PBS). The final wash was removed from the plate and the plate was blotted dry. Blocking Buffer (300 μL) (1% BSA in PBS) was added to each well. The plate was covered with a plate seal and incubated at room temperature for 1 hour. The blocked plate was washed 3× with Wash Buffer, then the final wash was removed and the plate was blotted dry. The previously prepared samples and standards were added ([…]) and the plate was covered with a plate seal and incubated at 4° C. overnight.
The prepared ELISA plate was removed from incubation and allowed to stand at room temperature for 30 minutes, then washed and blotted dry. The Second Antibody (Cell Signaling Rabbit anti-Bmi-1, Cat #2830) diluted to 1:600 in Blocking Buffer was added (100 μL) to each well, except as needed for background control wells. The plate was covered with a plate seal and incubated for 1.5 hrs at room temperature.
The ELISA plate was washed and blotted dry as previously described. The Third Antibody (Cell Signaling HRP conjugated anti-rabbit IgG (CellSignaling, Cat #:7074) diluted to 1:300 in Blocking Buffer was added (100 μL) to each well, except as needed for background control wells. The plate was incubated for 1 hr at room temperature.
The plate was washed and blotted dry, then a previously prepared TMB substrate (TMB substrate kit, Pierce catalog #34021) (prepared by mixing kit reagents 1:1) (100 μL) was added per well. The plate was incubated for 20-30 minutes at room temperature in the dark, then Stop Solution (2 M sulfuric acid in water) (50 μL) was added per well. The plates were read at OD450 (experimental) and OD570 (reference).
A general note: In an ELISA, binding on a coated surface is turned into a signal by an enzyme label.
Consider `Fc1ccc2nc(C(F)(F)F)c(-c3cncc(Nc4ccccc4)n3)n2c1` [compound 667, 6-[6-fluoro-2-(trifluoromethyl)imidazo[1,2-a]pyridin-3-yl]-N-phenylpyrazin-2-amine], for which the EC50 is 0.1 to 3 µM.

Take `COc1ccc(Nc2cncc(-n3c(C)nc4ccc(F)cc43)n2)cc1` [compound 553, 6-(6-fluoro-2-methyl-1H-benzimidazol-1-yl)-N-(4-methoxyphenyl)pyrazin-2-amine]: the EC50 lay within 0.001 to 0.01 µM.

As for `Cc1ccc(Nc2cc(N)cc(-n3c(C)nc4cc(F)c(F)cc43)n2)cc1` [compound 657, 6-(5,6-difluoro-2-methyl-1H-benzimidazol-1-yl)-N^2-(4-methylphenyl)pyridine-2,4-diamine], the EC50 was 0.01 to 0.1 µM.

Consider `CCc1nn2ccccc2c1-c1cncc(Nc2ccc(C#N)cc2)n1` [compound 641, 4-{[6-(2-ethylpyrazolo[1,5-a]pyridin-3-yl)pyrazin-2-yl]amino}benzonitrile], for which the EC50 is 0.01 to 0.1 µM.

For the molecule `[O-][n+]1cc(Nc2ccc(C(F)(F)F)cc2)nc(-c2c(C(F)(F)F)nc3ccccn23)c1` [compound 534, 6-[2-(trifluoromethyl)imidazo[1,2-a]pyridin-3-yl]-N-[4-(trifluoromethyl)phenyl]pyrazin-2-amine 4-oxide], the EC50 is 0.01 to 0.1 µM.

In the case of `Cc1nc2ncc(Cl)cc2n1-c1cncc(Nc2ccc(C(F)(F)F)cc2)n1` [compound 361, 6-(6-chloro-2-methyl-1H-imidazo[4,5-b]pyridin-1-yl)-N-[4-(trifluoromethyl)phenyl]pyrazin-2-amine], the EC50 was 0.001 to 0.01 µM.

For `CCc1nn2ccccc2c1-c1cncc(Nc2ccc(C)cc2)n1` [compound 628, 6-(2-ethylpyrazolo[1,5-a]pyridin-3-yl)-N-(4-methylphenyl)pyrazin-2-amine], the EC50 was below 0.001 µM.

Take `Cc1nc(C(F)(F)F)c(C)n1-c1cncc(Nc2ccc(C(F)(F)F)cc2)n1` [compound 318, 6-[2,5-dimethyl-4-(trifluoromethyl)-1H-imidazol-1-yl]-N-[4-(trifluoromethyl)phenyl]pyrazin-2-amine]: the EC50 lay within 0.1 to 3 µM.

For the molecule `COc1ccc(Nc2cncc(-n3c(C)nc4ccccc43)n2)cc1F` [compound 12, N-(3-fluoro-4-methoxyphenyl)-6-(2-methyl-1H-benzimidazol-1-yl)pyrazin-2-amine], the EC50 was below 0.001 µM.

`CCc1nn2ccccc2c1-c1cncc(Nc2ccc(OC(F)F)c(F)c2)n1` [compound 522, N-[4-(difluoromethoxy)-3-fluorophenyl]-6-(2-ethylpyrazolo[1,5-a]pyridin-3-yl)pyrazin-2-amine]: the EC50 lay in the range of 0.01 to 0.1 µM.

On to `Cc1nc2cc(F)c(F)cc2n1-c1cncc(Nc2ccc(C(F)(F)F)nc2)n1` [compound 304, 6-(5,6-difluoro-2-methyl-1H-benzimidazol-1-yl)-N-[6-(trifluoromethyl)pyridin-3-yl]pyrazin-2-amine], for which the EC50 was in the range of 0.01 to 0.1 µM.

In the case of `Cc1nc2ccccc2n1-c1cncc(Nc2ccc(C(F)(F)F)cc2)n1` [compound 13, 6-(2-methyl-1H-benzimidazol-1-yl)-N-[4-(trifluoromethyl)phenyl]pyrazin-2-amine], the EC50 is 0.01 to 0.1 µM.

`FC(F)Oc1ccc(Nc2cccc(-c3c(C(F)(F)F)nc4ncccn34)n2)cc1` [compound 108, N-[4-(difluoromethoxy)phenyl]-6-[2-(trifluoromethyl)imidazo[1,2-a]pyrimidin-3-yl]pyridin-2-amine]: the EC50 lay within 0.01 to 0.1 µM.

Take `Cc1nc2ccccc2n1-c1cc(N)cc(Nc2ccc(OC(F)F)cc2)n1` [compound 496, N^2-[4-(difluoromethoxy)phenyl]-6-(2-methyl-1H-benzimidazol-1-yl)pyridine-2,4-diamine]: the EC50 was 0.01 to 0.1 µM.

With `Cc1nc2ccccc2n1-c1cncc(Nc2ccc(Cl)cc2)n1` [compound 20, N-(4-chlorophenyl)-6-(2-methyl-1H-benzimidazol-1-yl)pyrazin-2-amine], the EC50 was 0.01 to 0.1 µM.

As for `COc1ccc2nc(C(F)(F)F)c(-c3cccc(Nc4ccc(OC(F)F)cc4)n3)n2c1` [compound 103, N-[4-(difluoromethoxy)phenyl]-6-[6-methoxy-2-(trifluoromethyl)imidazo[1,2-a]pyridin-3-yl]pyridin-2-amine], the EC50 lay in the range of 0.01 to 0.1 µM.

Take `CCc1nn2ccccc2c1-c1cncc(Nc2ccc(C(=O)OC)cc2)n1` [compound 642, methyl 4-{[6-(2-ethylpyrazolo[1,5-a]pyridin-3-yl)pyrazin-2-yl]amino}benzoate]: the EC50 was 0.01 to 0.1 µM.

For the molecule `Cc1nc2ccc(Br)cc2n1-c1cncc(Nc2ccc(C(F)(F)F)cc2)n1` [compound 388, 6-(6-bromo-2-methyl-1H-benzimidazol-1-yl)-N-[4-(trifluoromethyl)phenyl]pyrazin-2-amine], the EC50 was 0.01 to 0.1 µM.

For the molecule `Fc1cc(Nc2cncc(-c3c(C(F)(F)F)nc4ccccn34)n2)ccc1Cl` [Cpd 25, N-(4-chloro-3-fluorophenyl)-6-[2-(trifluoromethyl)imidazo[1,2-a]pyridin-3-yl]pyrazin-2-amine], the EC50 was 0.001 to 0.01 µM.

`N#Cc1ccc(Nc2cccc(-c3c(C(F)(F)F)nc4ccccn34)n2)cc1` [Cpd 50, 4-({6-[2-(trifluoromethyl)imidazo[1,2-a]pyridin-3-yl]pyridin-2-yl}amino)benzonitrile]: the EC50 is 0.01 to 0.1 µM.

In the case of `O=[N+]([O-])c1cc(Nc2ccc(OC(F)F)cc2)nc(-c2c(C(F)(F)F)nc3ccccn23)c1` [compound 169, N-[4-(difluoromethoxy)phenyl]-4-nitro-6-[2-(trifluoromethyl)imidazo[1,2-a]pyridin-3-yl]pyridin-2-amine], the EC50 is 0.01 to 0.1 µM.

With `Cc1cccc2c1nc(C)n2-c1cncc(Nc2ccc(C(F)(F)F)cc2)n1` [compound 283, 6-(2,4-dimethyl-1H-benzimidazol-1-yl)-N-[4-(trifluoromethyl)phenyl]pyrazin-2-amine], the concentration giving a half-maximal response (EC50) lay within 0.01 to 0.1 µM.

Consider `CNc1nc2ccccc2n1-c1cncc(Nc2ccc(OC(F)(F)F)cc2)n1` [compound 183, N-methyl-1-(6-{[4-(trifluoromethoxy)phenyl]amino}pyrazin-2-yl)-1H-benzimidazol-2-amine], for which the EC50 fell in the range of 0.01 to 0.1 µM.

Consider `CCc1ccc(Nc2cncc(-n3c(C)nc4ccccc43)n2)cc1` [compound 662, N-(4-ethylphenyl)-6-(2-methyl-1H-benzimidazol-1-yl)pyrazin-2-amine], for which the EC50 was in the range of 0.1 to 3 µM.

Regarding `Cc1nc2ncc(Cl)cc2n1-c1cncc(Nc2ccc(OC(F)F)cc2)n1` [compound 540, 6-(6-chloro-2-methyl-1H-imidazo[4,5-b]pyridin-1-yl)-N-[4-(difluoromethoxy)phenyl]pyrazin-2-amine], the EC50 is below 0.001 µM.

`Cc1nc2c(N)cccc2n1-c1cncc(Nc2ccc(C(F)(F)F)cc2)n1` [compound 296, 2-methyl-1-(6-{[4-(trifluoromethyl)phenyl]amino}pyrazin-2-yl)-1H-benzimidazol-4-amine]: the EC50 was 0.01 to 0.1 µM.

As for `Cc1nc2ncc(Cl)cc2n1-c1cc(C#N)cc(Nc2ccc(OC(F)F)c(F)c2)n1` [compound 429, 2-(6-chloro-2-methyl-1H-imidazo[4,5-b]pyridin-1-yl)-6-{[4-(difluoromethoxy)-3-fluorophenyl]amino}pyridine-4-carbonitrile], the EC50 lay within 0.001 to 0.01 µM.

The same test, now with this note: read-out: ELISA EC50 value for Bmi-1 protein, Table 1, Bmi-1 sandwich ELISA.
Consider `COc1ccc(Nc2ccc(N)c(-c3c(C(F)(F)F)nc4ccccn34)n2)cc1` [Cpd 282, N^2-(4-methoxyphenyl)-6-[2-(trifluoromethyl)imidazo[1,2-a]pyridin-3-yl]pyridine-2,5-diamine], for which the EC50 is 0.1 to 3 µM.

As for `FC(F)Oc1ccc(Nc2cncc(-c3cccc4nc(C5CC5)cn34)n2)cc1` [compound 90, 6-(2-cyclopropylimidazo[1,2-a]pyridin-5-yl)-N-[4-(difluoromethoxy)phenyl]pyrazin-2-amine], the EC50 lay in the range of 0.01 to 0.1 µM.

Usually EC50 stands for the midpoint of the concentration-response curve.
